Data as given in patent US20260042731A1, “(2,4-DICHLOROPHENOXY)ACETIC ACID ANALOGS” (CORTEVA AGRISCIENCE LLC, priority 2022, published 2026).
Read-outs that look alike come from different tables or passages of the source.

Assays:
[1] = test system: Abutilon theophrasti (ABUTH), velvetleaf; test: Postemergence herbicide evaluation, growth of Abutilon theophrasti (ABUTH); type: in vivo; details: Abutilon theophrasti, post-emergence, percent reduction in plant size vs untreated control, read-out: AVE. ABUTH; for pest or weed control at 280 g/ha: 280 g ae/ha; for pest or weed control at 560 g/ha: 560 g ae/ha
[2] = test system: glyphosate resistant Conyza canadensis (L.) (ERICA), horseweed; test: Postemergence herbicide evaluation, growth of Conyza canadensis (ERICA); type: in vivo; details: Erigeron canadensis, post-emergence, percent reduction in plant size vs untreated control, read-out: Ave. ERICA; for pest or weed control at 280 g/ha: 280 g ae/ha; for pest or weed control at 560 g/ha: 560 g ae/ha
[3] = Volatility of compounds measured by thermogravimetric analysis (TGA); type: physicochemical
[4] = test system: Amaranthus rudis (AMATA), tall water hemp; test: Postemergence herbicide evaluation, growth of Amaranthus rudis (AMATA); type: in vivo; details: Amaranthus tuberculatus, post-emergence, percent reduction in plant size vs untreated control, read-out: Ave. AMATA; for pest or weed control at 280 g/ha: 280 g ae/ha; for pest or weed control at 560 g/ha: 560 g ae/ha
[5] = test system: weeds ABUTH, AMATA, AMBEL, CHEAL, ERICA; test: Postemergence herbicide evaluation, overall average % weed control across ABUTH, AMATA, AMBEL, CHEAL and ERICA; type: in vivo; details: post-emergence, average over five weeds, read-out: Overall Ave % Weed Control; for pest or weed control at 280 g/ha: 280 g ae/ha; for pest or weed control at 560 g/ha: 560 g ae/ha
[6] = test system: Ambrosia artemisiifolia (AMBEL), common ragweed; test: Postemergence herbicide evaluation, growth of Ambrosia artemisiifolia (AMBEL); type: in vivo; details: Ambrosia artemisiifolia, post-emergence, percent reduction in plant size vs untreated control, read-out: AVE. AMBEL; for pest or weed control at 280 g/ha: 280 g ae/ha; for pest or weed control at 560 g/ha: 560 g ae/ha
[7] = test system: Chenopodium album (CHEAL), common lambsquarters; test: Postemergence herbicide evaluation, growth of Chenopodium album (CHEAL); type: in vivo; details: Chenopodium album, post-emergence, percent reduction in plant size vs untreated control, read-out: Ave. CHEAL; for pest or weed control at 280 g/ha: 280 g ae/ha; for pest or weed control at 560 g/ha: 560 g ae/ha

SMILES: O=C(COc1ccc(Cl)cc1Cl)Oc1ccccn1 [Compound E11]
- pest or weed control at 280 g/ha ([1]; 168 h, 7 DAA): 65%
- pest or weed control at 560 g/ha ([1]; 168 h, 7 DAA): 82.5%
- pest or weed control at 280 g/ha ([1]; 336 h, 14 DAA): 85%
- pest or weed control at 560 g/ha ([1]; 336 h, 14 DAA): 97.5%
- pest or weed control at 280 g/ha ([1]; 504 h, 21 DAA): 98.5%
- pest or weed control at 560 g/ha ([1]; 504 h, 21 DAA): 100%
- pest or weed control at 280 g/ha ([2]; 168 h, 7 DAA): 82.5%
- pest or weed control at 560 g/ha ([2]; 168 h, 7 DAA): 85%
- pest or weed control at 280 g/ha ([2]; 336 h, 14 DAA): 97.5%
- pest or weed control at 560 g/ha ([2]; 336 h, 14 DAA): 90%
- pest or weed control at 280 g/ha ([2]; 504 h, 21 DAA): 100%
- pest or weed control at 560 g/ha ([2]; 504 h, 21 DAA): 100%
- TGA Data (rate of weight loss, volatility) [3]: 0.4827 µg/min
- pest or weed control at 280 g/ha ([4]; 168 h, 7 DAA): 70%
- pest or weed control at 560 g/ha ([4]; 168 h, 7 DAA): 85%
- pest or weed control at 280 g/ha ([4]; 336 h, 14 DAA): 90%
- pest or weed control at 560 g/ha ([4]; 336 h, 14 DAA): 93.5%
- pest or weed control at 280 g/ha ([4]; 504 h, 21 DAA): 67.5%
- pest or weed control at 560 g/ha ([4]; 504 h, 21 DAA): 90%
- pest or weed control at 280 g/ha ([5]; 168 h, 7 DAA): 74.5%
- pest or weed control at 560 g/ha ([5]; 168 h, 7 DAA): 82.5%
- pest or weed control at 280 g/ha ([5]; 336 h, 14 DAA): 88%
- pest or weed control at 560 g/ha ([5]; 336 h, 14 DAA): 95.6%
- pest or weed control at 280 g/ha ([5]; 504 h, 21 DAA): 91.7%
- pest or weed control at 560 g/ha ([5]; 504 h, 21 DAA): 98%
- pest or weed control at 280 g/ha ([6]; 168 h, 7 DAA): 77.5%
- pest or weed control at 560 g/ha ([6]; 168 h, 7 DAA): 80%
- pest or weed control at 280 g/ha ([6]; 336 h, 14 DAA): 70%
- pest or weed control at 560 g/ha ([6]; 336 h, 14 DAA): 90%
- pest or weed control at 280 g/ha ([6]; 504 h, 21 DAA): 100%
- pest or weed control at 560 g/ha ([6]; 504 h, 21 DAA): 100%
- pest or weed control at 280 g/ha ([7]; 168 h, 7 DAA): 77.5%
- pest or weed control at 560 g/ha ([7]; 168 h, 7 DAA): 80%
- pest or weed control at 280 g/ha ([7]; 336 h, 14 DAA): 97.5%
- pest or weed control at 560 g/ha ([7]; 336 h, 14 DAA): 98%
- pest or weed control at 280 g/ha ([7]; 504 h, 21 DAA): 92.5%
- pest or weed control at 560 g/ha ([7]; 504 h, 21 DAA): 100%

SMILES: O=C(COc1cc(Cl)cc(Cl)c1)OCCCOC(=O)COc1ccc(Cl)cc1Cl [Compound B7]
- pest or weed control at 280 g/ha ([1]; 168 h, 7 DAA): 20%
- pest or weed control at 560 g/ha ([1]; 168 h, 7 DAA): 37.5%
- pest or weed control at 280 g/ha ([1]; 336 h, 14 DAA): 17.5%
- pest or weed control at 560 g/ha ([1]; 336 h, 14 DAA): 30%
- pest or weed control at 280 g/ha ([1]; 504 h, 21 DAA): 15%
- pest or weed control at 560 g/ha ([1]; 504 h, 21 DAA): 42.5%
- pest or weed control at 280 g/ha ([2]; 168 h, 7 DAA): 82.5%
- pest or weed control at 560 g/ha ([2]; 168 h, 7 DAA): 85%
- pest or weed control at 280 g/ha ([2]; 336 h, 14 DAA): 70%
- pest or weed control at 560 g/ha ([2]; 336 h, 14 DAA): 91.5%
- pest or weed control at 280 g/ha ([2]; 504 h, 21 DAA): 99%
- pest or weed control at 560 g/ha ([2]; 504 h, 21 DAA): 98.5%
- TGA Data (rate of weight loss, volatility) [3]: 0.03572 µg/min
- pest or weed control at 280 g/ha ([4]; 168 h, 7 DAA): 57.5%
- pest or weed control at 560 g/ha ([4]; 168 h, 7 DAA): 67.5%
- pest or weed control at 280 g/ha ([4]; 336 h, 14 DAA): 85%
- pest or weed control at 560 g/ha ([4]; 336 h, 14 DAA): 85%
- pest or weed control at 280 g/ha ([4]; 504 h, 21 DAA): 70%
- pest or weed control at 560 g/ha ([4]; 504 h, 21 DAA): 52.5%
- pest or weed control at 280 g/ha ([5]; 168 h, 7 DAA): 61%
- pest or weed control at 560 g/ha ([5]; 168 h, 7 DAA): 68%
- pest or weed control at 280 g/ha ([5]; 336 h, 14 DAA): 65.3%
- pest or weed control at 560 g/ha ([5]; 336 h, 14 DAA): 74.1%
- pest or weed control at 280 g/ha ([5]; 504 h, 21 DAA): 70.3%
- pest or weed control at 560 g/ha ([5]; 504 h, 21 DAA): 76.2%
- pest or weed control at 280 g/ha ([6]; 168 h, 7 DAA): 62.5%
- pest or weed control at 560 g/ha ([6]; 168 h, 7 DAA): 72.5%
- pest or weed control at 280 g/ha ([6]; 336 h, 14 DAA): 57.5%
- pest or weed control at 560 g/ha ([6]; 336 h, 14 DAA): 67.5%
- pest or weed control at 280 g/ha ([6]; 504 h, 21 DAA): 77.5%
- pest or weed control at 560 g/ha ([6]; 504 h, 21 DAA): 100%
- pest or weed control at 280 g/ha ([7]; 168 h, 7 DAA): 82.5%
- pest or weed control at 560 g/ha ([7]; 168 h, 7 DAA): 77.5%
- pest or weed control at 280 g/ha ([7]; 336 h, 14 DAA): 96.5%
- pest or weed control at 560 g/ha ([7]; 336 h, 14 DAA): 96.5%
- pest or weed control at 280 g/ha ([7]; 504 h, 21 DAA): 90%
- pest or weed control at 560 g/ha ([7]; 504 h, 21 DAA): 87.5%
